Target: T1, cloned human GLP-1 receptor (Homo sapiens, UniProt P43220)
T1 construct: expressed in transfected cells; host or cells: CHO or HEK-293 cells
Assay: Functional cell-based assay: cAMP functional assay
Conditions: for Emax: 0.5 h, percentage relative to maximal GLP-1-induced cAMP accumulation, na = not active in the assay, read-out: % activation
Outline: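 Monolayer cells incubated 30 min at 37 °C with compounds (0.0001–100 μM) in IMDM containing 100 μM RO 20-1724 PDE inhibitor, 0.1% BSA and 2% DMSO. cAMP measured by HTRF.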

T1 sequence (P43220 24-463): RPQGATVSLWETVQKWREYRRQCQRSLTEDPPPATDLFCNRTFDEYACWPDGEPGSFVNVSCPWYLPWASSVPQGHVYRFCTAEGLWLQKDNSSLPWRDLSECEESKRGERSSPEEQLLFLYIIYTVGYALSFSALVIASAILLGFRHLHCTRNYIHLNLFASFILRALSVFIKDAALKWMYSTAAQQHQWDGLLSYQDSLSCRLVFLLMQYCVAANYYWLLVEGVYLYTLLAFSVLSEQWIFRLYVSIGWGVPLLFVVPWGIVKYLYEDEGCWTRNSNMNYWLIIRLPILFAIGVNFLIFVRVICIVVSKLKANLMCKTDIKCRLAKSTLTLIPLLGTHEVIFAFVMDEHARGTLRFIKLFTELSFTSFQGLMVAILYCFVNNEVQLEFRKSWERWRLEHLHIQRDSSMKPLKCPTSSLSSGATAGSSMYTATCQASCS

Row | Compound | EC50 [µM] | Emax [%]
1 | Cc1cccc(CN2Cc3cc4c(cc3C[C@H]2C(=O)N[C@@H](Cc2ccc(-c3ccc(C#N)cc3)cc2)C(=O)O)NC(=O)C(c2ccc(OCc3ccc(Cl)c(Cl)c3)cc2)O4)n1 (stereo partly drawn) [Example 44, (S)-3-(4′-Cyano-biphenyl-4-yl)-2-{[(S)-3-[4-(3,4-dichloro-benzyloxy)-phenyl]-6-(6-methyl-pyridin-2-ylmethyl)-2-oxo-2,3,5,6,7,8-hexahydro-1H-4-oxa-1,6-diaza-anthracene-7-carbonyl]-amino}-propionic acid] | 1 | 25
2 | N#Cc1ccc(-c2ccc(C[C@H](NC(=O)[C@@H]3Cc4cc5c(cc4CN3C(=O)OC3CCC(O)C3)OC(c3ccc(OCc4ccc(Cl)c(Cl)c4)cc3)C(=O)N5)C(=O)O)cc2)cc1 (stereo partly drawn) [Example 2, (S)-7-[(S)-1-Carboxy-2-(4′-cyano-biphenyl-4-yl)-ethylcarbamoyl]-3-[4-(3,4-dichloro-benzyloxy)-phenyl]-2-oxo-1,2,3,5,7,8-hexahydro-4-oxa-1,6-diaza-anthracene-6-carboxylic acid 3-hydroxy-cyclopentyl ester] | 0.67 | 7.8
3 | COc1ccc(C(=O)N2Cc3cc4c(cc3C[C@H]2C(=O)N[C@@H](Cc2ccc(-c3ccc(C#N)cc3)cc2)C(=O)O)NC(=O)C(c2ccc(OCc3ccc(Cl)c(Cl)c3)cc2)O4)cc1 (stereo partly drawn) [Example 23, (S)-3-(4′-Cyano-biphenyl-4-yl)-2-{[(S)-3-[4-(3,4-dichloro-benzyloxy)-phenyl]-6-(4-methoxy-benzoyl)-2-oxo-2,3,5,6,7,8-hexahydro-1H-4-oxa-1,6-diaza-anthracene-7-carbonyl]-amino}-propionic acid] | 1.28 | 65.5
4 | CC[C@@H](c1ccccc1)N1Cc2cc3c(cc2C[C@H]1C(=O)N[C@@H](Cc1ccc(-c2ccc(OC)cc2)cc1)C(=O)O)N(C)C(=O)[C@@H](c1ccc(OCc2ccc(Cl)c(Cl)c2)cc1)O3 [Example 91, (S)-2-{[(3R,7S)-3-[4-(3,4-Dichloro-benzyloxy)-phenyl]-1-methyl-2-oxo-6-((S)-1-phenyl-propyl)-2,3,5,6,7,8-hexahydro-1H-4-oxa-1,6-diaza-anthracene-7-carbonyl]-amino}-3-(4′-methoxy-biphenyl-4-yl)-propionic acid] | 0.725 | 39
5 | N#Cc1ccc(-c2ccc(C[C@H](NC(=O)[C@@H]3Cc4cc5c(cc4CN3Cc3cccs3)OC(c3ccc(OCc4ccc(Cl)c(Cl)c4)cc3)C(=O)N5)C(=O)O)cc2)cc1 (stereo partly drawn) [Example 40] | 1.2 | 34
6 | Cc1ccccc1S(=O)(=O)N1Cc2cc3c(cc2C[C@H]1C(=O)N[C@@H](Cc1ccc(-c2ccc(C#N)cc2)cc1)C(=O)O)NC(=O)C(c1ccc(OCc2ccc(Cl)c(Cl)c2)cc1)O3 (stereo partly drawn) [Example 37, (S)-3-(4′-Cyano-biphenyl-4-yl)-2-{[(S)-3-[4-(3,4-dichloro-benzyloxy)-phenyl]-2-oxo-6-(toluene-2-sulfonyl)-2,3,5,6,7,8-hexahydro-1H-4-oxa-1,6-diaza-anthracene-7-carbonyl]-amino}-propionic acid] | 0.49 | 32
7 | N#Cc1ccc(-c2ccc(C[C@H](NC(=O)[C@@H]3Cc4cc5c(cc4CN3CC3CC3)OC(c3ccc(OCc4ccc(Cl)c(Cl)c4)cc3)C(=O)N5)C(=O)O)cc2)cc1 (stereo partly drawn) [Example 54, (S)-3-(4′-Cyano-biphenyl-4-yl)-2-({(S)-6cyclopropylmethyl-3-[4-(3,4-dichloro-benzyloxy)-phenyl]-2-oxo-2,3,5,6,7,8-hexahydro-1H-4-oxa-1,6-diaza-anthracene-7-carbonyl}-amino)-propionic acid] | 1.08 | 11.8
8 | N#Cc1ccc(-c2ccc(C[C@H](NC(=O)[C@@H]3Cc4cc5c(cc4CN3Cc3ccccc3Cl)OC(c3ccc(OCc4ccc(Cl)c(Cl)c4)cc3)C(=O)N5)C(=O)O)cc2)cc1 (stereo partly drawn) [Example 42, (S)-2-({(S)-6-(2-Chloro-benzyl)-3-[4-(3,4-dichloro-benzyloxy)-phenyl]-2-oxo-2,3,5,6,7,8-hexahydro-1H-4-oxa-1,6-diaza-anthracene-7-carbonyl}-amino)-3-(4′-cyano-biphenyl-4-yl)-propionic acid] | 1 | 56
9 | CC(C)COC(=O)N1Cc2cc3c(cc2C[C@H]1C(=O)N[C@@H](Cc1ccc(-c2ccc(C#N)cc2)cc1)C(=O)O)NC(=O)C(c1ccc(OCc2ccc(Cl)c(Cl)c2)cc1)O3 (stereo partly drawn) [Example 9, (S)-7-[(S)-1-Carboxy-2-(4′-cyano-biphenyl-4-yl)-ethylcarbamoyl]-3-[4-(3,4-dichloro-benzyloxy)-phenyl]-2-oxo-1,2,3,5,7,8-hexahydro-4-oxa-1,6-diaza-anthracene-6-carboxylic acid isobutyl ester] | 0.5 | 54
10 | CN1C(=O)C(c2ccc(OCc3ccc(Cl)c(Cl)c3)cc2)Oc2cc3c(cc21)C[C@@H](C(=O)N[C@@H](Cc1ccc(-c2ccc(C#N)cc2)cc1)C(=O)O)N(C1CCC1)C3 (stereo partly drawn) [Example 76, (S)-3-(4′-Cyano-biphenyl-4-yl)-2-({(S)-6-cyclobutyl-3-[4-(3,4-dichloro-benzyloxy)-phenyl]-1-methyl-2-oxo-6(1-phenyl-cyclopentylmethyl)-2,3,5,6,7,8-hexahydro-1H-4-oxa-1,6-diaza-anthracene-7-carbonyl}-amino)-propionic acid] | 1.14 | 8.12
11 | COc1ccccc1CN1Cc2cc3c(cc2C[C@H]1C(=O)N[C@@H](Cc1ccc(-c2ccc(C#N)cc2)cc1)C(=O)O)NC(=O)C(c1ccc(OCc2ccc(Cl)c(Cl)c2)cc1)O3 (stereo partly drawn) [Example 43, (S)-3-(4′-Cyano-biphenyl-4-yl)-2-{[(S)-3-[4-(3,4-dichloro-benzyloxy)-phenyl]-6-(2-methoxy-benzyl)-2-oxo-2,3,5,6,7,8-hexahydro-1H-4-oxa-1,6-diaza-anthracene-7-carbonyl]-amino}-propionic acid] | 0.5 | 34
12 | N#Cc1ccc(-c2ccc(C[C@H](NC(=O)[C@@H]3Cc4cc5c(cc4CN3C(=O)[C@H]3CCCO3)OC(c3ccc(OCc4ccc(Cl)c(Cl)c4)cc3)C(=O)N5)C(=O)O)cc2)cc1 (stereo partly drawn) [Example 6, (S)-3-(4′-Cyano-biphenyl-4-yl)-2-{[(S)-3-[4-(3,4-dichloro-benzyloxy)-phenyl]-2-oxo-6-((R)-tetrahydro-furan-2-carbonyl)-2,3,5,6,7,8-hexahydro-1H-4-oxa-1,6-diaza-anthracene-7-carbonyl]-amino}-propionic acid] | 3.6 | 7

These reach a lower EC50. Values come first.

Row | EC50 [µM] | Emax [%] | Compound
13 | 0.37 | 40.1 | N#Cc1ccc(-c2ccc(C[C@H](NC(=O)[C@@H]3Cc4cc5c(cc4CN3CC#Cc3ccsc3)OC(c3ccc(OCc4ccc(Cl)c(Cl)c4)cc3)C(=O)N5)C(=O)O)cc2)cc1 (stereo partly drawn) [Example 56, (S)-3-(4′-Cyano-biphenyl-4-yl)-2-{[(S)-3-[4-(3,4-dichloro-benzyloxy)-phenyl]-2-oxo-6-(3-thiophen-3-yl-prop-2-ynyl)-2,3,5,6,7,8-hexahydro-1H-4-oxa-1,6-diaza-anthracene-7-carbonyl]-amino}-propionic acid]
14 | 0.216 | 49.4 | N#Cc1ccc(-c2ccc(C[C@H](NC(=O)[C@@H]3Cc4cc5c(cc4CN3CC#Cc3ncccn3)OC(c3ccc(OCc4ccc(Cl)c(Cl)c4)cc3)C(=O)N5)C(=O)O)cc2)cc1 (stereo partly drawn) [Example 55, (S)-3-(4′-Cyano-biphenyl-4-yl)-2-{[(S)-3-[4-(3,4-dichloro-benzyloxy)-phenyl]-2-oxo-6-(3-pyrimidin-2-yl-prop-2-ynyl)-2,3,5,6,7,8-hexahydro-1H-4-oxa-1,6-diaza-anthracene-7-carbonyl]-amino}-propionic acid]
15 | 0.16 | 31 | N#Cc1ccc(-c2ccc(C[C@H](NC(=O)[C@@H]3Cc4cc5c(cc4CN3Cc3ccccc3)OC(c3ccc(OCc4ccc(Cl)c(Cl)c4)cc3)C(=O)N5)C(=O)O)cc2)cc1 (stereo partly drawn) [Example 34, (S)-2-({(S)-6-Benzyl-3-[4-(3,4-dichloro-benzyloxy)-phenyl]-2-oxo-2,3,5,6,7,8-hexahydro-1H-4-oxa-1,6-diaza-anthracene-7-carbonyl}-amino)-3-(4′-cyano-biphenyl-4-yl)-propionic acid]
16 | 0.427 | 61 | N#Cc1ccc(-c2ccc(C[C@H](NC(=O)[C@@H]3Cc4cc5c(cc4CN3C(=O)C3CCC3)OC(c3ccc(OCc4ccc(Cl)c(Cl)c4)cc3)C(=O)N5)C(=O)O)cc2)cc1 (stereo partly drawn) [Example 12, (S)-3-(4′-Cyano-biphenyl-4-yl)-2-({(S)-6-cyclobutanecarbonyl-3-[4-(3,4-dichloro-benzyloxy)-phenyl]-2-oxo-2,3,5,6,7,8-hexahydro-1H-4-oxa-1,6-diaza-anthracene-7-carbonyl}-amino)-propionic acid]
17 | 0.398 | 29 | N#Cc1ccc(-c2ccc(C[C@H](NC(=O)[C@@H]3Cc4cc5c(cc4CN3C(=O)c3cccs3)OC(c3ccc(OCc4ccc(Cl)c(Cl)c4)cc3)C(=O)N5)C(=O)O)cc2)cc1 (stereo partly drawn) [Example 28, (S)-3-(4′-Cyano-biphenyl-4-yl)-2-{[(S)-3-[4-(3,4-dichloro-benzyloxy)-phenyl]-2-oxo-6-(thiophene-2-carbonyl)-2,3,5,6,7,8-hexahydro-1H-4-oxa-1,6-diaza-anthracene-7-carbonyl]-amino}-propionic acid]
18 | 0.418 | 51 | CC(C)(C)COC(=O)N1Cc2cc3c(cc2C[C@H]1C(=O)N[C@@H](Cc1ccc(-c2ccc(C#N)cc2)cc1)C(=O)O)NC(=O)C(c1ccc(OCc2ccc(Cl)c(Cl)c2)cc1)O3 (stereo partly drawn) [Example 10, (S)-7-[(S)-1-Carboxy-2-(4′-cyano-biphenyl-4-yl)-ethylcarbamoyl]-3-[4-(3,4-dichloro-benzyloxy)-phenyl]-2-oxo-1,2,3,5,7,8-hexahydro-4-oxa-1,6-diaza-anthracene-6-carboxylic acid 2,2-dimethyl-propyl ester]

Source: patent US7906507B2, “Oxadiazoanthracene compounds for the treatment of diabetes” (TransTech Pharma, Inc., priority 2008, dated 2011)
